In paper PMC9316063, “Chalcones as Anti-Glioblastoma Stem Cell Agent Alone or as Nanoparticle Formulation Using Carbon Dots as Nanocarrier” (Pharmaceutics, 2022):
Several values for one entry are separate records, joined by “and”; a condition that tells them apart may be missing. Equal entries are not always repeated. Where two headings read alike, the source gives them in different places.

What was measured:
Format in all cases: cell-based, human
Glio9 = test: MTS cell viability assay, GSC line Glio9; conditions: 72 h, MTS, ±SEM, read-out: Glio9 IC50
Description: (§1) The generation and characterization of our GSC lines (Glio3, Glio9, Glio38) have been previously described. In brief, following patient consent, the resected tumors were mechanically and enzymatically dissociated, and red blood cells were removed using Red Cell Lysis buffer (SigmaAldrich, St. Louis, MO, USA). Cells were filtered and plated in a 3:1 ratio of Dulbecco’s Modified Eagle’s medium (DMEM): F12 (Gibco, Carlsbad, CA, USA) media supplemented with 1% penicillin and streptomcycin (penn/strep), 20 ng/mL each of human epidermal growth factor and human fibroblast growth factor, and 2% Gem21 NeuroPlex Serum-Free Supplement (Gemini Bioscience, Sacramento, CA, USA); a formulation consistent for the generation of GBM stem cell lines. Both Glio3 and Glio38 were derived from tumors prior to drug or radiation therapy and grow as neurospheres, whereas Glio9 was derived from a recurrent tumor, following chemo and radiotherapy, and grows adherent. The GBM cell line U87 MG (U87), purchased from ATCC (Manassas, VA, USA) and the pediatric GBM cell line SJ-GBM2 was obtained from Children’s Oncology Group. SJ-GBM2 cell line was derived from a child with glioblastoma post therapy and is used as part of a National Cancer Institute pediatric pre-clinical testing program. Both lines were maintained in RPMI media supplemented with 10% FBS and 1% penn/strep. Mesenchymal stem cells (MSCs) originally derived from human bone marrow aspirates were obtained from Thermo Fisher Scientific and maintained in MEM alpha supplemented with 20% FBS and 1% penn/strep. Prior to drug treatment, MSCs were moved to media with 10% FBS. Upon receipt U87, SJ-GBM2 and MSCs were immediately expanded with several aliquots frozen down for future use. These cell lines are not listed on the most recent NCBI database for misidentification and contamination of human cell lines. All cell lines were routinely tested for mycoplasma using LookOut mycoplasma PCR detection kit (Sigma-Aldrich, St. Louis, MO, USA) according to the manufacturer’s instructions and were maintained at 37 °C in a humidified 5% CO2 incubator.
(§2) The chalcones were dissolved in dimethyl sulfoxide (DMSO) at a concentration of 10 mM, vortexed and subsequently diluted to obtain 1 mM and 0.1 mM stock concentrations. C-dot-trans-chalcones were resuspended in supplement-free media (3:1 ratio DMEM/F12 for GSC experiments or RPMI for non-stem cell line experiments). Cell viability in response to drug treatment was determined using CellTiter 96 AQueous One Solution Cell Proliferation Assay, a colorimetric MTS assay kit (Promega, Madison, WI, USA). The GSCs were seeded into 96-well plates using modified neurosphere media containing 5% FBS at a density of 10,000 cells per well. MSCs and U87 cells were plated at 5000 cells/well while SJ-GBM2 cells were plated at 10,000 cells/well. The next day cells were treated with increasing concentrations of chalcones or C-dot-chalcone conjugate. Next, 72 h later, media was aspirated and 100 μL of a 1:5 solution of MTS to cell culture media was added to each well and incubated for 1–4 h. Optical density was measured at 490 nm using BioTek Synergy HT plate reader. Viability of drug treated cells is expressed as the percent viable cells relative to non-treated cells (100% viability). Experiments were done in triplicate.

Glio38 = test: MTS cell viability assay, GSC line Glio38; conditions: 72 h, MTS, ±SEM, read-out: Glio38 IC50
Description: as §1, §2

Glio3 = test: MTS cell viability assay, GSC line Glio3; conditions: 72 h, MTS, ±SEM, read-out: Glio3 IC50
Description: as §1, §2

[1] = tested on: mesenchymal stem cells (MSC); test: MTS cell viability assay, mesenchymal stem cells; conditions: 72 h, estimated, >>10 indicates no cell death observed at any of the concentrations tested
Description: as §1, §2

[2] = tested on: GSC lines Glio3, Glio9 and Glio38; test: MTS cell viability assay, all three GSC lines together; conditions: for IC50: 72 h; for activity against GSCs: at the concentrations tested
Description: as §1, §2

[3] = average of Glio3, Glio9, Glio38, read-out: average IC50 across the 3 GSC lines
[4] = Homo sapiens, Mesenchymal stem cells
[5] = Homo sapiens, in all three GSC lines, read-out: IC50 in all GSC lines (bound stated in text)
[6] = Homo sapiens, average of Glio3, Glio9, Glio38, read-out: average IC50 across the 3 GSC lines

Row | Molecule | IC50 (Glio9; Homo sapiens) [µM] | IC50 (Glio38; Homo sapiens) [µM] | IC50 (Glio3; Homo sapiens) [µM] | IC50 [1, 4] [µM] | IC50 [2, 5] [µM] | activity against GSCs [2] | further results
1 | Nc1ccc(C(=O)/C=C/c2ccccn2)cc1 [Chalcone 3q] |  |  |  |  |  |  | IC50 (Glio9): 6.6 ± 0.5 µM; IC50 (Glio38): 6.6 ± 0.7 µM; IC50 (Glio3): 8.3 ± 0.7 µM; IC50 [1]: > 10 µM; IC50 [2, 3]: 7.2 ± 0.5 µM
2 | COc1ccc(OC)c(/C=C/C(=O)c2ccc(N)cc2)c1 [Chalcone 3c] | 9.3 ± 0.6 | 10.4 ± 2 | 12 ± 1.8 | > 10 | < 15 |  | 
3 | COc1ccc(OC)c(/C=C/C(=O)c2ccc(NC(C)=O)cc2)c1 [Chalcone 3d] | 5.5 ± 1.1 | 7.9 ± 1.7 | 6.9 ± 1.6 | 16.8 | < 10 | active | 
4 | COC(=O)COc1ccc(C(=O)/C=C/c2cc(OC)c(OC)c(OC)c2)cc1 [Chalcone 4e] | 7 ± 1.3 | 18.4 | 10.4 ± 1.4 |  |  | active | 
5 | COc1cc(/C=C/C(=O)c2ccc(OC(C)=O)cc2)cc(OC)c1OC [Chalcone 4d] | 6.2 ± 0.9 | 6.9 ± 0.3 | 7.7 ± 0.4 | > 10 | < 10 |  | 
6 | COc1cc(/C=C/C(=O)c2ccc(NC(C)=O)cc2)cc(OC)c1 [Chalcone 3g] | 4.8 ± 0.6 | 5.4 ± 0.6 | 6.2 ± 1.3 | 7.4 | < 10 | active | 
7 | Nc1ccc(C(=O)/C=C/c2c[nH]c3ccccc23)cc1 [Chalcone 3t] | > 10 | > 10 | > 10 |  |  |  | 
8 | 3,4,5-trimethoxy chalcone [Chalcone 3e] |  |  |  |  |  |  | IC50 (Glio9): 8.9 ± 1.6 µM; IC50 (Glio38): 9.2 ± 0.8 µM; IC50 (Glio3): 10.9 ± 0.8 µM; IC50 [1]: 46.7 µM; IC50 ([1]; listed as 4′-amino-trimethoxy chalcone): ~50 µM; IC50 [2, 3]: < 10 µM and 9.7 µM; IC50 ([2]; in all three GSC lines, read-out: IC50 in all GSC lines (bound stated in text)): < 15 µM
9 | Nc1ccc(C(=O)/C=C/c2ccccn2)cc1 [Chalcone 3p] | 5.2 ± 0.5 | 6.4 ± 2 | 6.6 ± 1.2 | 8 | < 10 |  | IC50 [2, 6]: 6.1 ± 0.4 µM
10 | COc1cc(/C=C/C(=O)c2ccc(OCC(=O)O)cc2)cc(OC)c1OC [Chalcone 4f] | > 10 | > 10 | > 10 |  |  | active | 
11 | COc1cc(/C=C/C(=O)c2ccc(O)cc2)cc(OC)c1 [Chalcone 4b] | 7 ± 0.4 | 6.4 ± 0.4 | 6.7 ± 0.2 | 17.1 | < 10 |  | 
12 | COc1cc(/C=C/C(=O)c2ccc(N)cc2)ccc1O [Chalcone 3l] | > 10 | > 10 | > 10 |  |  |  | 
13 | COc1cc(/C=C/C(=O)c2ccc(N)cc2)cc(OC)c1O [Chalcone 3k] | > 10 | > 10 | > 10 |  |  | not active at concentrations tested | activity against GSCs ([2]; listed as 4k): eliminates activity
14 | Nc1ccc(C(=O)/C=C/c2cccc(Br)c2)cc1 [Chalcone 3x] | 7 ± 0.5 | 5.9 ± 0.8 | 9.3 ± 1.1 | 28.1 | < 10 |  | IC50 [2, 6]: 7.4 µM
15 | CCOc1cc(C=CC(=O)c2ccc(N)cc2)ccc1O [Chalcone 3j] | > 10 | > 10 | > 10 |  |  | not active at concentrations tested | 
